Source: ChEMBL document CHEMBL1150576, “Two new lactones with mosquito larvicidal activity from three Hortonia species” (2001)
Values after ≈ are worked out from the molar mass of the structure shown.

Test system: Aedes aegypti
Test: Larvicidal activity against second instar larvae of Aedes aegypti
Type: functional

## C=CCCCCCCCCCCC1=C[C@H](C)OC1=O
  LC50: 0.47 µg/mL (≈ 1.78 µM)

## C#CCCCCCCCCCCC1=C[C@H](C)OC1=O
  LC50: 0.41 µg/mL (≈ 1.56 µM)
